Measured values from patent US20250304623A1, “PEPTIDES FOR INTRACELLULAR DELIVERY” (UNIVERSIDADE DE SANTIAGO DE COMPOSTELA, priority 2022, published 2025).
*: point of attachment. NHNH2 = NN*

Assays:
Format in all cases: cell-based
[1] = test system: A549 cells; assay: RLuc pDNA delivery, robotic library screening, A549
Procedure, shortened: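 A549 cells in DMEM+10% FBS were washed twice with PBS and exposed for 4 h to amphiphile/RLuc pDNA complexes prepared from DMSO stocks diluted in DMEM. After medium replacement and 72 hours, cells in HBSS were incubated at 37° C. for 30 minutes, basal then total luminescence measured after 5 μM coelenterazine h; background from untransfected cells was subtracted.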

[2] = test system: HCT116 cells; assay: RLuc pDNA delivery, robotic library screening, HCT116
[3] = test system: Hela cells; assay: RLuc pDNA delivery, robotic library screening, HeLa
[4] = test system: Hek293 cells; assay: RLuc pDNA delivery, robotic library screening, Hek293
[5] = test system: Hek293 cells expressing EGFP; assay: EGFP-targeting siRNA delivery (GFP silencing vs siMOCK), Hek293

Ac-RK*LRRK*LRK*-NH2 (Ac-RK(NHNH2)LRRK(NHNH2)LRK(NHNH2)-NH2; not fully specified; printed as Ac-RK*LRRK*LRK*-NH2; also: K*2,K*6,K*9: native or modified lysine (ε-amide to a linker)) [Peptide 9.3]
mean luminescent intensity (RLuc pDNA) ([1]; Dodecanal, 10 μM): 2898 RLU
mean luminescent intensity (RLuc pDNA) ([1]; Myristoleyl, 5 μM): 23125 RLU
mean luminescent intensity (RLuc pDNA) ([1]; Myristoleyl, 10 μM): 32698 RLU
mean luminescent intensity (RLuc pDNA) ([1]; Myristoleyl, 15 μM): 6504 RLU
mean luminescent intensity (RLuc pDNA) ([1]; Oleyl, 10 μM): 1117 RLU
mean luminescent intensity (RLuc pDNA) ([1]; Oleyl, 15 μM): 1433 RLU
mean luminescent intensity (RLuc pDNA) ([1]; Palmitoleyl, 10 μM): 5800 RLU
mean luminescent intensity (RLuc pDNA) ([1]; Palmitoleyl, 15 μM): 9967 RLU
mean luminescent intensity (RLuc pDNA) ([1]; Petroselinyl, 10 μM): 4167 RLU
mean luminescent intensity (RLuc pDNA) ([1]; Petroselinyl, 15 μM): 5514 RLU
mean luminescent intensity (RLuc pDNA) ([2]; Dodecanal, 10 μM): 1466 RLU
mean luminescent intensity (RLuc pDNA) ([2]; Dodecanal, 15 μM): 1854 RLU
mean luminescent intensity (RLuc pDNA) ([2]; Myristoleyl, 5 μM): 16615 RLU
mean luminescent intensity (RLuc pDNA) ([2]; Myristoleyl, 10 μM): 58572 RLU
mean luminescent intensity (RLuc pDNA) ([2]; Myristoleyl, 15 μM): 19746 RLU
mean luminescent intensity (RLuc pDNA) ([2]; Oleyl, 15 μM): 1940 RLU
mean luminescent intensity (RLuc pDNA) ([2]; Palmitoleyl, 15 μM): 141026 RLU
mean luminescent intensity (RLuc pDNA) ([2]; Petroselinyl, 5 μM): 30301 RLU
mean luminescent intensity (RLuc pDNA) ([2]; Petroselinyl, 10 μM): 113431 RLU
mean luminescent intensity (RLuc pDNA) ([2]; Petroselinyl, 15 μM): 76316 RLU
mean luminescent intensity (RLuc pDNA) ([3]; HeLa, Petroselinyl, 10 μM): 1228 RLU
mean luminescent intensity (RLuc pDNA) ([3]; Hela, Dodecanal, 10 μM): 70716 RLU
mean luminescent intensity (RLuc pDNA) ([3]; Hela, Dodecanal, 15 μM): 303962 RLU
mean luminescent intensity (RLuc pDNA) ([3]; Hela, Myristoleyl, 5 μM): 3600 RLU
mean luminescent intensity (RLuc pDNA) ([3]; Hela, Myristoleyl, 10 μM): 18554 RLU
mean luminescent intensity (RLuc pDNA) ([3]; Hela, Myristoleyl, 15 μM): 4014 RLU
mean luminescent intensity (RLuc pDNA) ([3]; Hela, Oleyl, 10 μM): 5404 RLU
mean luminescent intensity (RLuc pDNA) ([3]; Hela, Oleyl, 15 μM): 1759 RLU
mean luminescent intensity (RLuc pDNA) ([3]; Hela, Palmitoleyl, 10 μM): 940 RLU
mean luminescent intensity (RLuc pDNA) ([3]; Hela, Palmitoleyl, 15 μM): 22617 RLU
mean luminescent intensity (RLuc pDNA) ([3]; Hela, Petroselinyl, 5 μM): 1035 RLU
mean luminescent intensity (RLuc pDNA) ([3]; Hela, Petroselinyl, 15 μM): 14602 RLU
mean luminescent intensity (RLuc pDNA) ([4]; Dodecanal, 10 μM): 71221 RLU
mean luminescent intensity (RLuc pDNA) ([4]; Dodecanal, 15 μM): 33244 RLU
mean luminescent intensity (RLuc pDNA) ([4]; Oleyl, 15 μM): 4792 RLU
mean luminescent intensity (RLuc pDNA) ([4]; Palmitoleyl, 5 μM): −143 RLU
mean luminescent intensity (RLuc pDNA) ([4]; Palmitoleyl, 10 μM): −284 RLU
mean luminescent intensity (RLuc pDNA) ([4]; Palmitoleyl, 15 μM): 3126 RLU
mean luminescent intensity (RLuc pDNA) ([4]; Petroselinyl, 5 μM): −1091 RLU
mean luminescent intensity (RLuc pDNA) ([4]; Petroselinyl, 10 μM): −1142 RLU
mean luminescent intensity (RLuc pDNA) ([4]; Petroselinyl, 15 μM): 147 RLU
percentage of GFP-silencing relative to siMOCK ([5]; Dodecanal, 5 μM): 19%
percentage of GFP-silencing relative to siMOCK ([5]; Dodecanal, 15 μM): 40%
percentage of GFP-silencing relative to siMOCK ([5]; Myristoleyl, 10 μM): 10%
percentage of GFP-silencing relative to siMOCK ([5]; Myristoleyl, 15 μM): 43%
percentage of GFP-silencing relative to siMOCK ([5]; Oleyl, 15 μM): 28%
percentage of GFP-silencing relative to siMOCK ([5]; Palmitoleyl, 10 μM): 17%
percentage of GFP-silencing relative to siMOCK ([5]; Palmitoleyl, 15 μM): 36%
percentage of GFP-silencing relative to siMOCK ([5]; Petroselinyl, 10 μM): 3%
percentage of GFP-silencing relative to siMOCK ([5]; Petroselinyl, 15 μM): −12%
